Paper PMC9852833, “Functional evaluation of cyclosporine metabolism by CYP3A4 variants and potential drug interactions” (Frontiers in Pharmacology, 2023)

Experiments:
[1] = test system: metabolism of CsA in rat liver microsomes (RLMs); experiment: Inhibition of CsA metabolism in rat liver microsomes (RLMs); settings: for Inhibitory rate on the metabolism of CsA: screen of 132 drugs, RLMs […], Tris-HCl, NADPH 1 mM, AM1 by UPLC-MS/MS; for Inhibitory effect on the metabolism of CsA (in words): RLMs, comparison of five antihypertension drugs (Figure 2C)
Procedure: (§1) The concentrations of CsA, its main metabolite AM1, and diazepam (IS) were detected by UPLC–MS/MS equipped with a triple quadrupole and electrospray ionization (ESI) source. […] Briefly, the analytes were separated on a UPLC BEH C18 column (2.1 mm × 50 mm, 1.7 μm particle size). […] Solvent A (0.1% formic acid) and solvent B (acetonitrile) were applied as the mobile phase, with a gradient elution at a flow rate of 0.4 ml/min and an injection volume of 4 μl.
(§2) Reduced nicotinamide adenine dinucleotide phosphate (NADPH) (1 mmol/L) was added into the mixture after preincubation at 37°C for 5 min to initiate the reaction. The mixture was incubated for another 40 min, then cooled at −80°C to suspend the reaction. Then, 400 μl of acetonitrile and 20 μl of diazepam (200 ng/ml) were added to the frozen mixture. The mixtures were vortexed for 2 min and centrifuged at 13,000 rpm for 10 min. Finally, 4 μl of the mixture was injected for UPLC-MS/MS analysis.
(§3) A 200 μl system was incubated with either RLMs or HLMs (at a concentration of 0.15 mg/ml) containing drugs, CsA, RLMs or HLMs (all at a concentration of 0.15 mg/ml), Tris-HCl buffer, and 10 μl of NADPH (1 mM). […] The rest of the operation was the same as already described.

[2] = test system: metabolism of CsA in human liver microsomes (HLMs); CYP3A4; settings: comparison of five antihypertension drugs (Figure 2D)
Procedure: as §1, §2, §3

[3] = Inhibition of CsA metabolism in rat liver microsomes (RLMs); settings: SD
Procedure: as §1, §2, §3

[4] = Pharmacokinetics of CsA and AM1 in rats with or without nimodipine or nisoldipine; assay type: in vivo, Sprague–Dawley rats; settings: male SD rats, plasma, UPLC-MS/MS, mean ± SD n = 6
Procedure: Sprague–Dawley male rats weighing 200–250 g were purchased from Shanghai Laboratory Animal Center (SLAC). After 2 weeks of laboratory adaptation, the rats were randomly divided into three groups with six rats in each group. […] All drugs were orally administered. […] The collected blood samples were centrifuged to obtain the plasma. Then, 150 μl of acetonitrile and 20 μl of diazepam (IS; 100 ng/ml) were added to 50 μl of plasma, mixed and vortexed for 2 min, centrifuged for 10 min, and 4 μl of the supernatant was used for UPLC-MS/MS injection analysis.
The pharmacokinetic parameters were evaluated by DAS 3.0.

[5] = metabolite after CsA 40 mg/kg oral + nimodipine 24 mg/kg oral
[6] = metabolite after CsA 40 mg/kg oral + nisoldipine 2 mg/kg oral
[7] = metabolite after CsA 40 mg/kg oral alone

OCCOc1ccc(/C(=C(/CCCl)c2ccccc2)c2ccccc2)cc1 [ospemifene]
Inhibitory rate on the metabolism of CsA [1]: greater than 80%

CO[C@H]1C[C@@H]2CC[C@@H](C)[C@@](O)(O2)C(=O)C(=O)N2CCCC[C@H]2C(=O)O[C@H]([C@H](C)C[C@@H]2CC[C@@H](OCCO)[C@H](OC)C2)CC(=O)[C@H](C)/C=C(\C)[C@@H](O)[C@@H](OC)C(=O)[C@H](C)C[C@H](C)/C=C/C=C/C=C/1C [everolimus, Everolimus]
Inhibitory rate on the metabolism of CsA [1]: greater than 80%

N#CC1(c2ccc(NC(=O)c3cccnc3NCc3ccncc3)cc2)CCCC1 [apatinib, Apatinib]
Inhibitory rate on the metabolism of CsA [1]: greater than 80%

COC(=O)C1=C(C)NC(C)=C(C(=O)OCC(C)C)C1c1ccccc1[N+](=O)[O-] (stereo not shown) [nisoldipine, Nisoldipine]
Inhibitory effect on the metabolism of CsA (in words) [2]: almost completely blocked the metabolism of CsA
IC50 [3]: 16.2 ± 0.78 µM
Inhibitory effect on the metabolism of CsA (in words) [1]: almost completely blocked the metabolism of CsA
Inhibitory rate on the metabolism of CsA [1]: greater than 80%

CC[C@@H]1NC(=O)[C@H]([C@H](O)[C@H](C)C/C=C/CO)N(C)C(=O)[C@H](C(C)C)N(C)C(=O)[C@H](CC(C)C)N(C)C(=O)[C@H](CC(C)C)N(C)C(=O)[C@@H](C)NC(=O)[C@H](C)NC(=O)[C@H](CC(C)C)N(C)C(=O)[C@H](C(C)C)NC(=O)[C@H](CC(C)C)N(C)C(=O)CN(C)C1=O [AM1, CsA M-17]
AUC(0-t) of AM1 [4, 5]: 3,291.60 ± 1,213.46 μg/L·h
AUC(0-∞) of AM1 [4, 5]: 3,504.89 ± 1,223.40 μg/L·h
CLz/F of AM1 [4, 5]: 207 ± 60 mL/min/kg
Cmax of AM1 [4, 5]: 192.68 ± 69.42 ng/mL
Tmax of AM1 [4, 5]: 7.00 ± 2.68 h
Vz/F of AM1 [4, 5]: 198.16 ± 99.97 L/kg
t1/2z of AM1 [4, 5]: 10.83 ± 3.52 h
AUC(0-t) of AM1 [4, 6]: 1,548.46 ± 482.43 μg/L·h
AUC(0-∞) of AM1 [4, 6]: 2,128.73 ± 887.82 μg/L·h
CLz/F of AM1 [4, 6]: 354.3 ± 122 mL/min/kg
Cmax of AM1 [4, 6]: 110.32 ± 19.52 ng/mL
Tmax of AM1 [4, 6]: 6.17 ± 1.60 h
Vz/F of AM1 [4, 6]: 494.23 ± 201.15 L/kg
t1/2z of AM1 [4, 6]: 19.58 ± 13.45 h
AUC(0-t) of AM1 [4, 7]: 2,275.37 ± 620.96 μg/L·h
AUC(0-∞) of AM1 [4, 7]: 2,542.74 ± 779.21 μg/L·h
CLz/F of AM1 [4, 7]: 283.8 ± 88.5 mL/min/kg
Cmax of AM1 [4, 7]: 141.21 ± 30.64 ng/mL
Tmax of AM1 [4, 7]: 6.83 ± 1.33 h
Vz/F of AM1 [4, 7]: 264.78 ± 145.01 L/kg
t1/2z of AM1 [4, 7]: 12.10 ± 9.00 h

C[C@@H](c1nc(-c2ccc(C#N)cc2)cs1)[C@](O)(Cn1cncn1)c1cc(F)ccc1F [isavuconazole, Isavuconazole]
Inhibitory rate on the metabolism of CsA [1]: greater than 80%

Cc1cccc(C)c1OCC(=O)N[C@@H](Cc1ccccc1)[C@@H](O)C[C@H](Cc1ccccc1)NC(=O)[C@H](C(C)C)N1CCCNC1=O [lopinavir, Lopinavir]
Inhibitory rate on the metabolism of CsA [1]: greater than 80%

C=CC[C@@H]1/C=C(\C)C[C@H](C)C[C@H](OC)[C@H]2O[C@@](O)(C(=O)C(=O)N3CCCC[C@H]3C(=O)O[C@H](/C(C)=C/[C@@H]3CC[C@@H](O)[C@H](OC)C3)[C@H](C)[C@@H](O)CC1=O)[C@H](C)C[C@@H]2OC [tacrolimus, Tacrolimus]
Inhibitory rate on the metabolism of CsA [1]: greater than 80%

CCOC(=O)C1=C(C)NC(C)=C(C(=O)OC)C1c1cccc(Cl)c1Cl (stereo not shown) [felodipine]
Inhibitory effect on the metabolism of CsA (in words) [1]: almost completely blocked the metabolism of CsA

COCCOC(=O)C1=C(C)NC(C)=C(C(=O)OC(C)C)C1c1cccc([N+](=O)[O-])c1 (stereo not shown) [nimodipine, Nimodipine]
Inhibitory effect on the metabolism of CsA (in words) [1]: almost completely blocked the metabolism of CsA

C[C@@H](c1ncncc1F)[C@](O)(Cn1cncn1)c1ccc(F)cc1F [voriconazole, Voriconazole]
Inhibitory rate on the metabolism of CsA [1]: greater than 80%
